According to patent publication US20090181986A1, “SUBSTITUTED HETEROCYCLIC COMPOUNDS” (priority 2007, published 2009):

Experiments:
[1] = molecular target: wild-type human cardiac sodium channel, hNav1.5 (Homo sapiens, UniProt Q14524); assay: Late INa screening assay (PatchXpress whole cell patch clamp, late current generated with Tefluthrin or ATX II); assay type: cell-based; settings: test compound at 10 μM
Description: The late sodium current (Late INa) and peak sodium current (Peak INa) assays are performed on an automated electrophysiology platform, PatchXpress 7000A (MDS Analytical Technologies, Sunnyvale, Calif.), which uses the whole cell patch clump technique to measure currents through the cell membrane of up to 16 cells at a time. The assay uses an HEK293 (human embryonic kidney) cell line heterologously expressing the wild-type human cardiac sodium channel, hNav1.5, purchased from Millipore (Billerica, Mass.). No beta subunits were coexpressed with the Na channel alpha subunit. […] Experiments are carried out at 24-27° C.
For both the Late INa and Peak INa assays, series resistance compensation is set to 50% and whole-cell compensation is performed automatically. […] Currents through open sodium channels are automatically recorded and stored in the DataXpress2 database (MDS Analytical Technologies, Sunnyvale, Calif.). Analysis is performed using DataXpress2 analysis software and data are compiled in Excel.
Compound stocks are routinely made in glass vials to 10 mM in dimethyl sulfoxide (DMSO). In some cases, when compounds are not soluble in DMSO, they are made in 100% ethanol. Stocks are sonicated as necessary. The extracellular solution for screening Late INa is composed of: 140 mM NaCl, 4 mM KCl, 1.8 mM CaCl2, 0.75 mM MgCl2, and 5 mM HEPES with pH adjusted to 7.4 using NaOH. The extracellular solution for screening Peak INa is composed of: 20 mM NaCl, 120 mM N-methyl-D glucamine, 4 mM KCl, 1.8 mM CaCl2, 0.75 mM MgCl2, and 5 mM HEPES with pH adjusted to 7.4 using HCl. The intracellular solution used to perfuse the inside of the cells for both the Late INa and Peak INa assays contains: 120 mM CsF, […], 5 mM EGTA, 5 mM HEPES and pH adjusted to 7.4 with CsOH. […] The ONa extracellular solution used at the end of each experiment for the Late INa and Peak INa assays to measure baseline current contains: 140 mM N-methyl-D-glucamine; 4 mM KCl; 1.8 mM CaCl2; 0.75 mM MgCl2; 5 mM HEPES and pH was adjusted to 7.4 with HCl.
For the Late INa assay, sodium channels are activated every 10 seconds (0.1 Hz) by depolarizing the cell membrane to −20 mV for 250 milliseconds (ms) from a holding potential of −120 mV.
All compounds are tested to determine their activity in blocking the late sodium current. Late INa current is generated by adding 10 μM Tefluthrin (pyrethroid) to the extracellular solution while recording Na currents. […] For some experiments, 50 nM ATX II (sea anemone toxin), another late INa activator, was used to generate the late component. […] Baseline current in the absence of Na^+ ions is measured at the end of each experiment (after two additions of 0 Na solution—see above) and is used to calculate the percent block by compound.

L-type calcium channel = L-type calcium channel activity well-plate assay (IMR-32 cells, Ca-4 dye, FlexStation); assay type: cell-based, human
Description: Cell Culture: IMR-32 (human neuroblastoma) cells were obtained from The American Type Culture Collection. The cells were maintained in MEM supplemented with 10% fetal bovine serum, 2 mM of L-glutamine, 100 IU/ml of penicillin, 50 μg/ml of streptomycin, 1% of sodium pyruvate, 1% of sodium bicarbonate and 1% of non-essential amino acid. […] Culture medium was changed every two days and cells were recultivated when they reached 70-80% confluent.
Assay: IMR-32 cells were seeded on a Microtest 96-well Assay Plate (BD FALCON™) at a density of 200,000 cells/well in 200 μl culture medium for overnight. The culture medium was removed, and replaced by 120 μl Ca-4 dye (MDS Analytical Technologies, Sunnyvale, Calif.) in HBSS (1× Hank's Balanced Salt solution plus 20 mM HEPES, pH 7.4) containing 2 mM probenecid. Cells were then incubated for 1 hour at 37° in incubator. Testing compounds were diluted from 5 μM-50 μM in HBSS, and 40 μl were added in cells before assay. […] The inhibition of L-type calcium channel activity by compounds was then calculated.

hERG potassium channel = hERG potassium channel (Homo sapiens, UniProt Q12809); assay: hERG screening assay (PatchXpress patch clamp, CHO cells)
hERG potassium channel, sequence (Q12809 whole entry): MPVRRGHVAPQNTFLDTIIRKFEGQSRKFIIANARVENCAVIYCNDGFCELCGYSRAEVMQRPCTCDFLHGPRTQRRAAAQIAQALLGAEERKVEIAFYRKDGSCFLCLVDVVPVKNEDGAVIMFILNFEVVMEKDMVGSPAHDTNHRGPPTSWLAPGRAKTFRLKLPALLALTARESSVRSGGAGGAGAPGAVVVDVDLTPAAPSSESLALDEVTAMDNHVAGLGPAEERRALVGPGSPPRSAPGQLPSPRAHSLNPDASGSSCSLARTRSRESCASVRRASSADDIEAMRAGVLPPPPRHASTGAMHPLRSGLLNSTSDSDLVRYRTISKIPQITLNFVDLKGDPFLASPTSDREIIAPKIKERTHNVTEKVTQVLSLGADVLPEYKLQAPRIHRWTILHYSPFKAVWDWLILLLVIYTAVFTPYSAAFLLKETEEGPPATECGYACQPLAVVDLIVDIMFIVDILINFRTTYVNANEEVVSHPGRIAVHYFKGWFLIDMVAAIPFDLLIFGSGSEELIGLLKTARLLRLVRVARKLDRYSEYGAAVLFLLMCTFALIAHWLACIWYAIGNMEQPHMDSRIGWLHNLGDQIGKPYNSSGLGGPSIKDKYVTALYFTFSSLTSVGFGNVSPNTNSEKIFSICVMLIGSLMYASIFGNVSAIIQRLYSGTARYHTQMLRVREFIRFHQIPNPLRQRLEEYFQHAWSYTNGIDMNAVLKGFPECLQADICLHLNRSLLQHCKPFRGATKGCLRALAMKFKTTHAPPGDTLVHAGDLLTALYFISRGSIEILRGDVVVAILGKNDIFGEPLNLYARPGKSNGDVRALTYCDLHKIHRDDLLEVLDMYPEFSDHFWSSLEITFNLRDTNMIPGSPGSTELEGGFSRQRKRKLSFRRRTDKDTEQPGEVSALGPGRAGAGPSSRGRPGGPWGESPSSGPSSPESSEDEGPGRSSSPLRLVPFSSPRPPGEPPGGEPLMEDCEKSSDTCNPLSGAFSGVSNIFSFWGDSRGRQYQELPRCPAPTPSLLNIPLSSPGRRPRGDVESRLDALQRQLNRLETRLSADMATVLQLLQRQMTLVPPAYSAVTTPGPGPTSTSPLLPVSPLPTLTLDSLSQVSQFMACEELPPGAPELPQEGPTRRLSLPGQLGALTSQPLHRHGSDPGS
Description: Compounds were screened to test their activity in blocking the hERG potassium channel. The hERG channel is heterologously expressed in a CHO (Chinese Hamster Ovary) cell line. Cells are maintained with standard tissue culture procedures and stable channel expression is maintained with 500 μg/ml G418 in the culture medium. Cells are harvested for testing on the PatchXpress automated patch clamp with Acctumax (Innovative Cell Technologies, San Diego, Calif.) to isolate single cells.
The following solutions are used for electrophysiological recordings. The external solution contains: 2 mM CaCl2; 2 mM MgCl2; 4 mM KCl; 150 mM NaCl; 10 mM Glucose; 10 mM HEPES (pH 7.4 with 1M NaOH, osmolarity).
hERG channels are activated when the voltage is stepped to +20 mV from the −80 mV holding potential (see FIG. 3). During a 5 second step at +20 mV, the channels activate and then largely inactivate, so the currents are relatively small. Upon returning to −50 mV from +20 mV, hERG currents transiently become much larger as inactivation is rapidly removed and then the channel closes. The first step to −50 mV for 300 ms is used as a baseline for measuring the peak amplitude during the step to −50 mV after channel activation. The peak current at −50 mV is measured both under control conditions and after addition of compound.
All compounds are prepared as 10 mM DMSO stocks in glass vials. Stock solutions are mixed by vigorous vortexing and sonication for about 2 minutes at room temperature. For testing, compounds are diluted in glass vials using an intermediate dilution step in pure DMSO and then further diluted to working concentrations in external solution. Dilutions are prepared no longer than 20 minutes before use.
After achieving the whole-cell configuration, cells are monitored for 90 seconds to assess stability and washed with external solution for 66 seconds. The voltage protocol described above is then applied to the cells every 12 seconds and throughout the whole procedure. Only cells with stable recording parameters and meeting specified health criteria are allowed to enter the compound addition procedure.
External solution containing 0.1% DMSO (vehicle) is applied to the cells first to establish the control peak current amplitude. After allowing the current to stabilize for 3 to 5 minutes, 1 μM and then 10 μM test compounds are applied. Each compound concentration is added 4 times and cells are kept in test solution until the effect of the compound reaches steady state or for a maximum of 12 minutes. […] Washout in the external solution compartment is performed until the recovery of the current reaches steady state. Data are analyzed using DataXpress, Clampfit (Molecular Devices, Inc., Sunnyvale) and Origin 7 (Originlab Corp.)

wild-type human cardiac sodium channel, hNav1.5, sequence (Q14524 whole entry): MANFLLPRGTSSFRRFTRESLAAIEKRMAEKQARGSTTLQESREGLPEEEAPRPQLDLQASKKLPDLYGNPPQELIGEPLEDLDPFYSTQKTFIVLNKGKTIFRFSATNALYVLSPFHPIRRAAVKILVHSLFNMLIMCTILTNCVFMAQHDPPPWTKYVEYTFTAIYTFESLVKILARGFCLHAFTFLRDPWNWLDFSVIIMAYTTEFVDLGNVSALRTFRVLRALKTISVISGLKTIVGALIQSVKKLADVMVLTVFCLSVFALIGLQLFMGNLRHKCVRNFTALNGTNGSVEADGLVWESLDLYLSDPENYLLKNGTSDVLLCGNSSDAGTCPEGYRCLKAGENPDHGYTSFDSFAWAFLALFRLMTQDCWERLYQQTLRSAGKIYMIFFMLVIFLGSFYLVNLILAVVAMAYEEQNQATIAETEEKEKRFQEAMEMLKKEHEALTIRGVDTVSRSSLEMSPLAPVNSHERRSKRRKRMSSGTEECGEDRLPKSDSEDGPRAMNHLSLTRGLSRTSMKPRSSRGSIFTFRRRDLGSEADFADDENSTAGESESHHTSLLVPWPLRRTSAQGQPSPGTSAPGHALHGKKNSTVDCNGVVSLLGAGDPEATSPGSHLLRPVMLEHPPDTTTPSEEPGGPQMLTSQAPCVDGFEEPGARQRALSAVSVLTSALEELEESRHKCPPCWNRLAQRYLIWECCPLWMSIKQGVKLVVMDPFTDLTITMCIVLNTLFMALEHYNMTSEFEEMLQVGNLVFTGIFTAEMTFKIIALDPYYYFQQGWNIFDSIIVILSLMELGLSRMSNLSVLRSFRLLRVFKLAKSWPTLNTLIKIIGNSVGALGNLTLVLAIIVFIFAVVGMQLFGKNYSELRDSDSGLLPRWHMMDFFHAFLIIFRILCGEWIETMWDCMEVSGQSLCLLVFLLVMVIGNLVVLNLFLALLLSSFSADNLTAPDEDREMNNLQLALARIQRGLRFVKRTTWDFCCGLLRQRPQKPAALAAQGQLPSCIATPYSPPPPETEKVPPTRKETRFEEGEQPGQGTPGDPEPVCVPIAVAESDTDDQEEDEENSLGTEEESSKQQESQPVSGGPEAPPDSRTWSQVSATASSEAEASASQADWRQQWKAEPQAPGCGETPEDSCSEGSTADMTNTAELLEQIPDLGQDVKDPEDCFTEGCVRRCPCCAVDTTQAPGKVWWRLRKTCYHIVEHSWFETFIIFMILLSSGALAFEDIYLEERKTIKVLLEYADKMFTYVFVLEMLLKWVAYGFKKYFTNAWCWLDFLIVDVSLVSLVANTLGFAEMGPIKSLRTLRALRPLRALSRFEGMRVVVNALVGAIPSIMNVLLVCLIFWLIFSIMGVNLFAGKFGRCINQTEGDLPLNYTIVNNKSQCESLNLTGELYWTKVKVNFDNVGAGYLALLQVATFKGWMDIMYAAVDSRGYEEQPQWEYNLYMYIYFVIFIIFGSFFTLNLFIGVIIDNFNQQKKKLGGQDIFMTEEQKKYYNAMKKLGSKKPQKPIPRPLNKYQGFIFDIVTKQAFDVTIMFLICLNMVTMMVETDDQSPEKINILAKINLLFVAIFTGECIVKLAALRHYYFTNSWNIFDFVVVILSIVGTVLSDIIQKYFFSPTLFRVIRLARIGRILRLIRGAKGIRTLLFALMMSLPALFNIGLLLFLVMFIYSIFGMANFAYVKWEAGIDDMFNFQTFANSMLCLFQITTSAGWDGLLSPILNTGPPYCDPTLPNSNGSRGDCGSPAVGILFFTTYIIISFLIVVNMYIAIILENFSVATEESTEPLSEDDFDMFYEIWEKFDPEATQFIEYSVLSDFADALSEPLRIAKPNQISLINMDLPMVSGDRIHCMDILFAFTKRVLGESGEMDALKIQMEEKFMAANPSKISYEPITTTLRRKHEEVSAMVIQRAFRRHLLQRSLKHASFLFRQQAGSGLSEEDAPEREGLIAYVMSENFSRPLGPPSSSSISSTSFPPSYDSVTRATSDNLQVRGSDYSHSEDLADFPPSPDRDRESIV

| Compound | Late INa % blk [1] [%] | inhibition at 10 µM ([1]; read-out: Late INa % blk) [%] | CaL Plate Assay % blk (1 μM test cmpd) (L-type calcium channel) [%] | CaL Plate Assay % blk (10 μM test cmpd) (L-type calcium channel) [%] | hERG Patch Clamp hERG % blk (1 μM test cmpd) (hERG potassium channel) [%] | hERG Patch Clamp hERG % blk (10 μM test cmpd) (hERG potassium channel) [%] |
| --- | --- | --- | --- | --- | --- | --- |
| 2-methyl-1-phenylpropan-2-yl 5-methyl-7-(naphthalen-1-yl)-4,7-dihydrotetrazolo[1,5-a]pyrimidine-6- [PT-264] | 53.5 | – | – | – | – | – |
| CC1=C(C(=O)OCc2ccc(C(F)(F)F)cc2)C(c2cccc3ccccc23)n2nnnc2N1 (stereo not shown) [PT-051, 4-(trifluoromethyl)benzyl 5-methyl-7-(naphthalen-1-yl)-4,7-dihydrotetrazolo[1,5-a]pyrimidine-6-carboxylate] | – | 16.9 | – | – | – | – |
| CC1=C(C(=O)O[C@@H](C)c2ccccc2)C(c2cc3ccccc3s2)n2nnnc2N1 (stereo partly drawn) [PT-056, (S)-1-phenylethyl 7-(benzo[b]thiophen-2-yl)-5-methyl-4,7-dihydrotetrazolo[1,5-a]pyrimidine-6-carboxylate] | 7.8 | – | – | – | – | – |
| CCOC(=O)C1=C(C)NC(C)=C(C(=O)OCC)C1c1ccc(CC)s1 [PT-113, diethyl 4-(5-ethylthiophen-2-yl)-2,6-dimethyl-1,4-dihydropyridine-3,5-dicarboxylate] | – | – | 18 | 93 | 11 | 57.5 |
| CCOC(=O)C1=C(C)NC(C)=C(C(=O)OCC)C1c1cc2ccccc2s1 [PT-114, diethyl 4-(benzo[b]thiophen-2-yl)-2,6-dimethyl-1,4-dihydropyridine-3,5-dicarboxylate] | – | – | 8 | 15 | 27.5 | 86.5 |
| CCOC(=O)C1=C(C)NC(C)=C(C(=O)OCC)C1c1sc2ccccc2c1C [PT-116, diethyl 2,6-dimethyl-4-(3-methylbenzo[b]thiophen-2-yl)-1,4-dihydropyridine-3,5-dicarboxylate] | – | – | 6 | 32 | 22.9 | 66 |
| CCOC(=O)C1=C(C)NC(C)=C(C(=O)OCC)C1c1cc2ccccc2o1 [PT-122, diethyl 4-(benzofuran-2-yl)-2,6-dimethyl-1,4-dihydropyridine-3,5-dicarboxylate] | – | – | 10 | 63 | 15.5 | 55 |
| CC1=C(C(=O)OC(C)C)C(c2cccc3ccccc23)C(C(=O)OC(C)C)=C(C)N1 [PT-123, diisopropyl 2,6-dimethyl-4-(naphthalen-1-yl)-1,4-dihydropyridine-3,5-dicarboxylate] | – | – | 59 | 92 | 10 | 30.5 |
| CC1=C(C(=O)OC(C)C)C(c2ccc(Br)s2)C(C(=O)OC(C)C)=C(C)N1 [PT-124, diisopropyl 4-(5-bromothiophen-2-yl)-2,6-dimethyl-1,4-dihydropyridine-3,5-dicarboxylate] | – | – | 10 | 52 | 11.5 | 66 |
| CCCC1=C(C(=O)OCC)C(c2ccsc2)C2=C(CC(c3ccccc3)CC2=O)N1 (stereo not shown) [PT-149, ethyl 5-oxo-7-phenyl-2-propyl-4-(thiophen-3-yl)-1,4,5,6,7,8-hexahydroquinoline-3-carboxylate] | – | – | 4 | 72 | 46 | 90 |
| CCOC(=O)C1=C(C)NC2=C(C(=O)CCC2)C1c1ccco1 (stereo not shown) [PT-153, ethyl 4-(furan-2-yl)-2-methyl-5-oxo-1,4,5,6,7,8-hexahydroquinoline-3-carboxylate] | – | – | 3 | 44 | 10.5 | 13.5 |
| CC1=C(C(=O)N2CCC(c3ccc(C(=O)O)cc3)CC2)C(c2cccc3ccccc23)C2=C(CCCC2=O)N1 (stereo not shown) [PT-173, 4-(1-(2-methyl-4-(naphthalen-1-yl)-5-oxo-1,4,5,6,7,8-hexahydroquinoline-3-carbonyl)piperidin-4-yl)benzoic acid] | – | – | 0 | 26 | 12 | 37 |
| CC1=C(C(=O)NCc2ccccc2)C(c2ccsc2)C2=C(CCCC2=O)N1 (stereo not shown) [PT-178, N-benzyl-2-methyl-5-oxo-4-(thiophen-3-yl)-1,4,5,6,7,8-hexahydroquinoline-3-carboxamide] | – | – | 10 | 2 | 11.5 | 30 |
| CCOC(=O)C1=C(CC)NC(CC)=C(C(=O)OCC)C1c1ccc(Br)s1 [PT-181, diethyl 4-(5-bromothiophen-2-yl)-2,6-diethyl-1,4-dihydropyridine-3,5-dicarboxylate] | – | – | 8 | 61 | 10.5 | 73 |
| CCOC(=O)C1=C(C(C)C)NC(C(C)C)=C(C(=O)OCC)C1c1ccc(Br)s1 [PT-183, diethyl 4-(5-bromothiophen-2-yl)-2,6-diisopropyl-1,4-dihydropyridine-3,5-dicarboxylate] | – | – | 0 | 16 | 10 | 10 |
| CCOC(=O)C1=C(C)N(C)C(C)=C(C(=O)OCC)C1c1cccc2ccccc12 [PT-191, diethyl 1,2,6-trimethyl-4-(naphthalen-1-yl)-1,4-dihydropyridine-3,5-dicarboxylate] | – | – | 12 | 37 | 26.5 | 68 |
| CCOC(=O)C1=C(C)Nc2nnnn2C1c1cccc2ccccc12 (stereo not shown) [PT-192, ethyl 5-methyl-7-(naphthalen-1-yl)-4,7-dihydrotetrazolo[1,5-a]pyrimidine-6-carboxylate] | – | – | 9 | 12 | 23 | 29 |
| CCOC(=O)C1=C(C)Nc2nc(C#N)c(C#N)n2C1c1cccc2ccccc12 (stereo not shown) [PT-194, ethyl 2,3-dicyano-7-methyl-5-(naphthalen-1-yl)-5,8-dihydroimidazo[1,2-a]pyrimidine-6-carboxylate] | – | – | 21 | 61 | 25 | 91 |
| CC1=C(C(=O)OCc2ccccc2)C(c2cccc3ccccc23)n2nnnc2N1C (stereo not shown) [PT-195, benzyl 4,5-dimethyl-7-(naphthalen-1-yl)-4,7-dihydrotetrazolo[1,5-a]pyrimidine-6-carboxylate] | – | – | 0 | 88 | 12.5 | 49 |
